Results: paper PMC8202330, “Phosphorylation of the LIR Domain of SCOC Modulates ATG8 Binding Affinity and Specificity” (Journal of Molecular Biology, 2021)
Where two headings read alike, the source gives them in different places.

Legend:
Type in all cases: binding
LC3A = target: T1, LC3A (Homo sapiens, UniProt Q9H492); assay: Bio-layer interferometry (BLI) affinity of SCOC LIR peptides for LC3A
T1 construct: GST (followed by 3C protease cleavage site) (N); made in house
Procedure: (§1) Bio-layer interferometry (BLI) is an optical analytical technique for measuring kinetics of interactions in real-time. The biosensor tip surface immobilized with a ligand is incubated with an analyte in solution, resulting in an increase in optical thickness at the biosensor tip and a wavelength shift, which is a direct measure of the change in thickness. Bio-layer interferometry analyses of ATG8s binding to immobilized biotinylated LIR peptides were performed using an Octet Red 96 (ForteBio). […] Ligands-loaded SA biosensors were then incubated with different concentrations of ATG8. All binding experiments were performed in solid-black 96-well plates containing 200 μl of solution (25 mM Tris pH 7.5, 150 mM NaCl, 0.5 mM TCEP, 0.1% Tween20, 1 mg/ml BSA) in each well at 25 °C with an agitation speed of 1000 rpm. Each measurement was repeated 2 to 3 times. Dissociation constants for LIR-ATG8 interactions were determined from plotting the increase in BLI response as a function of the protein concentration and fitting using non-linear regression of ForteBio 7.1 data analysis and GraphPad Prism 7 softwares.
(§2) The following peptides were synthesized using FMOC solid phase peptide chemistry by the Francis CRICK Institute peptide chemistry science technology platform: […]

LC3B = target: T2, LC3B (Homo sapiens, UniProt Q9GZQ8); assay: Bio-layer interferometry (BLI) affinity of SCOC LIR peptides for LC3B
T2 construct: GST (followed by 3C protease cleavage site) (N); made in house
Procedure: as §1, §2

LC3C = target: T3, LC3C (Homo sapiens, UniProt Q9BXW4); assay: Bio-layer interferometry (BLI) affinity of SCOC LIR peptides for LC3C
T3 construct: GST (followed by 3C protease cleavage site) (N); made in house
Procedure: as §1, §2

GABARAP = target: T4, GABARAP (Homo sapiens, UniProt O95166); assay: Bio-layer interferometry (BLI) affinity of SCOC LIR peptides for GABARAP
T4 construct: fused with a Gly-Ser linker to full-length GABARAP (GST-GABARAP (pAL)); GST (followed by 3C protease cleavage site) (N); made in house
Procedure: as §1, §2

GABARAPL1 = target: T5, GABARAPL1 (Homo sapiens, UniProt Q9H0R8); assay: Bio-layer interferometry (BLI) affinity of SCOC LIR peptides for GABARAPL1
T5 construct: GST-GABARAPL1 full-length (pAL); GST (followed by 3C protease cleavage site) (N); made in house
Procedure: as §1, §2

GABARAPL2 = target: T6, GABARAPL2 (Homo sapiens, UniProt P60520); assay: Bio-layer interferometry (BLI) affinity of SCOC LIR peptides for GABARAPL2
T6 construct: GST (followed by 3C protease cleavage site) (N); made in house
Procedure: as §1, §2

[1] = BLI, wild-type and phosphorylated SCOC LIR peptides, Tris pH 7.5, 25 °C, average ± standard error of fit, n = 2–3, Figure 4B, read-out: Kd LC3A
[2] = BLI, wild-type and phosphorylated SCOC LIR peptides, Tris pH 7.5, 25 °C, average ± standard error of fit, n = 2–3, Figure 4B, read-out: Kd LC3B
[3] = BLI, wild-type and phosphorylated SCOC LIR peptides, Tris pH 7.5, 25 °C, average ± standard error of fit, n = 2–3, Figure 4B, read-out: Kd LC3C
[4] = BLI, wild-type and phosphorylated SCOC LIR peptides, Tris pH 7.5, 25 °C, average ± standard error of fit, n = 2–3, Figure 4B, read-out: Kd GAB
[5] = BLI, wild-type and phosphorylated SCOC LIR peptides, Tris pH 7.5, 25 °C, average ± standard error of fit, n = 2–3, Figure 4B, read-out: Kd GAB-L1
[6] = BLI, wild-type and phosphorylated SCOC LIR peptides, Tris pH 7.5, 25 °C, average ± standard error of fit, n = 2–3, Figure 4B, read-out: Kd GAB-L2

T6 sequence (P60520 whole entry): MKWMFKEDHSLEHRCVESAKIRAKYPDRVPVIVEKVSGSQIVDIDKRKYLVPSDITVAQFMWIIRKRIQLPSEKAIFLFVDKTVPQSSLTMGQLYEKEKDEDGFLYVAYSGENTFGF
T4 sequence (O95166 whole entry, the tested form may be a part): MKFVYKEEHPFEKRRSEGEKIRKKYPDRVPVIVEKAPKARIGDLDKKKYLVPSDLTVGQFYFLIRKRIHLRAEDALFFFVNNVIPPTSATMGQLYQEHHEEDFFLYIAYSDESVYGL
T5 sequence (Q9H0R8 whole entry): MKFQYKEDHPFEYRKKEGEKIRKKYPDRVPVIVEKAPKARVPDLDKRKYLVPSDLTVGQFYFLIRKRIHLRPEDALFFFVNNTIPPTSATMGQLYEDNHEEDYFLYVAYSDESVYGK
T3 sequence (Q9BXW4 whole entry): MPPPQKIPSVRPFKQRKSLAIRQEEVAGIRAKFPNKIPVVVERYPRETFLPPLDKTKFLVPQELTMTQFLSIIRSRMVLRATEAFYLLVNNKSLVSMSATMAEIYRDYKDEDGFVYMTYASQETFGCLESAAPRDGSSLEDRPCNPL

Row | Compound | Kd (LC3A) | Kd (LC3B) | Kd (LC3C) | Kd (GABARAP) | Kd (GABARAPL1) | Kd (GABARAPL2) | Kd (LC3A; [1]) | Kd (LC3B; [2]) | Kd (LC3C; [3]) | Kd (GABARAP; [4]) | Kd (GABARAPL1; [5]) | Kd (GABARAPL2; [6])
1 | CC[C@H](C)[C@H](NC(=O)[C@H](CC(=O)O)NC(=O)[C@H](CC(=O)O)NC(=O)[C@H](C)NC(=O)[C@H](CC(C)C)NC(=O)[C@H](CO)NC(=O)[C@@H](NC(=O)[C@H](CC(N)=O)NC(=O)[C@@H](NC(=O)[C@H](Cc1ccccc1)NC(=O)[C@@H](NC(=O)[C@H](COP(=O)(O)O)NC(=O)[C@H](CC(=O)O)NC(=O)[C@H](CCC(=O)O)NC(=O)[C@H](CCC(=O)O)NC(=O)[C@H](CCC(=O)O)NC(=O)[C@H](CCC(=O)O)NC(=O)[C@@H](N)CCCCN)[C@@H](C)O)[C@@H](C)OP(=O)(O)O)[C@@H](C)CC)C(=O)N[C@@H](CC(=O)O)C(=O)N[C@@H](Cc1c[nH]cn1)C(N)=O [pS12, pT15] | 0.7 ± 0.08 µM | 4.8 ± 0.6 µM | 410 ± 40 nM | 1 ± 0.1 µM | 370 ± 40 nM | 8.3 ± 0.4 µM | – | – | – | – | – | –
2 | CC[C@H](C)[C@H](NC(=O)[C@H](CC(=O)O)NC(=O)[C@H](CC(=O)O)NC(=O)[C@H](C)NC(=O)[C@H](CC(C)C)NC(=O)[C@H](CO)NC(=O)[C@@H](NC(=O)[C@H](CC(N)=O)NC(=O)[C@@H](NC(=O)[C@H](Cc1ccccc1)NC(=O)[C@@H](NC(=O)[C@H](COP(=O)(O)O)NC(=O)[C@H](CC(=O)O)NC(=O)[C@H](CCC(=O)O)NC(=O)[C@H](CCC(=O)O)NC(=O)[C@H](CCC(=O)O)NC(=O)[C@H](CCC(=O)O)NC(=O)[C@@H](N)CCCCN)[C@@H](C)O)[C@@H](C)O)[C@@H](C)CC)C(=O)N[C@@H](CC(=O)O)C(=O)N[C@@H](Cc1c[nH]cn1)C(N)=O [pS12] | – | – | – | – | – | – | 3 ± 0.4 µM | 41.6 ± 4.6 µM | 1400 ± 100 nM | 1.5 ± 0.1 µM | 880 ± 80 nM | 12.8 ± 1.3 µM
3 | CC[C@H](C)[C@H](NC(=O)[C@H](CC(=O)O)NC(=O)[C@H](CC(=O)O)NC(=O)[C@H](C)NC(=O)[C@H](CC(C)C)NC(=O)[C@H](COP(=O)(O)O)NC(=O)[C@@H](NC(=O)[C@H](CC(N)=O)NC(=O)[C@@H](NC(=O)[C@H](Cc1ccccc1)NC(=O)[C@@H](NC(=O)[C@H](CO)NC(=O)[C@H](CC(=O)O)NC(=O)[C@H](CCC(=O)O)NC(=O)[C@H](CCC(=O)O)NC(=O)[C@H](CCC(=O)O)NC(=O)[C@H](CCC(=O)O)NC(=O)[C@@H](N)CCCCN)[C@@H](C)O)[C@@H](C)O)[C@@H](C)CC)C(=O)N[C@@H](CC(=O)O)C(=O)N[C@@H](Cc1c[nH]cn1)C(N)=O [pS18] | – | – | – | – | – | – | 4.9 ± 0.4 µM | 48.9 ± 8.6 µM | 1900 ± 200 nM | 3.9 ± 0.3 µM | 2100 ± 100 nM | 26 ± 2.4 µM
4 | CC[C@H](C)[C@H](NC(=O)[C@H](CC(=O)O)NC(=O)[C@H](CC(=O)O)NC(=O)[C@H](C)NC(=O)[C@H](CC(C)C)NC(=O)[C@H](CO)NC(=O)[C@@H](NC(=O)[C@H](CC(N)=O)NC(=O)[C@@H](NC(=O)[C@H](Cc1ccccc1)NC(=O)[C@@H](NC(=O)[C@H](CO)NC(=O)[C@H](CC(=O)O)NC(=O)[C@H](CCC(=O)O)NC(=O)[C@H](CCC(=O)O)NC(=O)[C@H](CCC(=O)O)NC(=O)[C@H](CCC(=O)O)NC(=O)[C@@H](N)CCCCN)[C@@H](C)OP(=O)(O)O)[C@@H](C)O)[C@@H](C)CC)C(=O)N[C@@H](CC(=O)O)C(=O)N[C@@H](Cc1c[nH]cn1)C(N)=O [pT13] | 10.1 ± 1.5 µM | 193 ± 29 µM | 5000 ± 500 nM | 3.1 ± 0.3 µM | 2000 ± 200 nM | 33.8 ± 2.6 µM | – | – | – | – | – | –
5 | CC[C@H](C)[C@H](NC(=O)[C@H](CC(=O)O)NC(=O)[C@H](CC(=O)O)NC(=O)[C@H](C)NC(=O)[C@H](CC(C)C)NC(=O)[C@H](CO)NC(=O)[C@@H](NC(=O)[C@H](CC(N)=O)NC(=O)[C@@H](NC(=O)[C@H](Cc1ccccc1)NC(=O)[C@@H](NC(=O)[C@H](CO)NC(=O)[C@H](CC(=O)O)NC(=O)[C@H](CCC(=O)O)NC(=O)[C@H](CCC(=O)O)NC(=O)[C@H](CCC(=O)O)NC(=O)[C@H](CCC(=O)O)NC(=O)[C@@H](N)CCCCN)[C@@H](C)O)[C@@H](C)OP(=O)(O)O)[C@@H](C)CC)C(=O)N[C@@H](CC(=O)O)C(=O)N[C@@H](Cc1c[nH]cn1)C(N)=O [pT15] | 3.7 ± 0.5 µM | 37.4 ± 4.5 µM | 3600 ± 400 nM | 3 ± 0.3 µM | 1200 ± 100 nM | 44 ± 4.5 µM | – | – | – | – | – | –
